The values that follow come from ChEMBL document CHEMBL5252592, “Design, synthesis, and biological activity evaluation of novel tubulin polymerization inhibitors based on pyrimidine ring skeletons” (Bioorg Med Chem Lett, 2023).

pIC50: −log10 of the molar value.

Assay type in all cases: functional, cell-based
The subject of one test is A549. In words: Antiproliferative activity against human A549 cells assessed as inhibition of cell growth.
Another test has as its system HepG2. In words: Antiproliferative activity against human HepG2 cells assessed as inhibition of cell growth.
The subject of a further test is U-937. In words: Antiproliferative activity against human U-937 cells assessed as inhibition of cell growth.
For the next test, the system named is Y79. In words: Antiproliferative activity against human Y79 cells assessed as inhibition of cell growth.

By pIC50 is commonly meant −log10 of the IC50, conventionally taken in molar units. As for `COc1cc(Nc2cc(-c3coc4ccccc34)nc(N)n2)cc(OC)c1OC`, the pIC50 in the test with A549 is 5.77; in the test with HepG2, 5.71; in the test on U-937, 5.85; with Y79, less than 5.00.

In the case of `COc1cc(Nc2nccc(-c3ccc4cc[nH]c4c3)n2)cc(OC)c1OC`, the pIC50 in the test on A549 was 6.07; in the test with HepG2, 6.43; in the test with U-937 it was 6.92; in the test on Y79 it was less than 5.00.

As for `COc1cc(Nc2ccnc(-c3cc4ccccc4s3)n2)cc(OC)c1OC`, the negative-log IC50 (pIC50) in the test with A549, with HepG2, in the test with U-937 and with Y79 was less than 5.00 throughout.

Consider `COc1cc(Nc2nccc(-c3ccc4[nH]c5ccccc5c4c3)n2)cc(OC)c1OC`, for which the pIC50 is 5.51 with A549, 5.83 with HepG2, 6.05 in the test on U-937 and less than 5.00 in the test on Y79.

For `COc1cc(Nc2ccnc(-c3ccc4c(c3)CCO4)n2)cc(OC)c1OC`, the pIC50 in the test on A549, in the test on HepG2, in the test on U-937 and in the test on Y79 was less than 5.00 each time.

Consider `COc1cc(Nc2ccnc(-c3ccc4cc[nH]c4c3)n2)cc(OC)c1OC`, for which the pIC50 in the test on A549, in the test with HepG2, with U-937 and in the test with Y79 was less than 5.00 each time.

As for `COc1cc(Nc2cc(-c3coc4ccccc34)ncn2)cc(OC)c1OC`, the pIC50 in the test on A549, in the test on HepG2, in the test on U-937 and in the test on Y79 was less than 5.00 in each case.

On to `COc1cc(Nc2cc(-c3cc4ccccc4o3)ncn2)cc(OC)c1OC`, for which the pIC50 with A549, in the test on HepG2, with U-937 and in the test with Y79 was less than 5.00 in each case.

As to `COc1cc(Nc2nccc(-c3ccc4c(c3)OCO4)n2)cc(OC)c1OC`, the pIC50 in the test with A549 is 5.50; in the test on HepG2, 5.75; in the test on U-937, 6.43; with Y79, less than 5.00.

Take `COc1cc(Nc2cc(-c3csc4ccccc34)nc(N)n2)cc(OC)c1OC`: the pIC50 with A549, in the test on HepG2, in the test on U-937 and in the test with Y79 was less than 5.00 each time.

In the case of `COc1cc(Nc2nccc(-c3cc4ccccc4o3)n2)cc(OC)c1OC`, the negative-log IC50 (pIC50) is 5.64 with A549, 5.91 with HepG2, 6.47 in the test with U-937 and less than 5.00 in the test on Y79.

In the case of `COc1cc(Nc2cc(-c3cc4ccccc4o3)nc(N)n2)cc(OC)c1OC`, the pIC50 in the test on A549, with HepG2, in the test with U-937 and with Y79 was less than 5.00 each time.

As for `COc1cc(Nc2cc(-c3ccc4c(c3)OCCO4)ncn2)cc(OC)c1OC`, the pIC50 with A549, in the test on HepG2, in the test with U-937 and in the test on Y79 was less than 5.00 throughout.

With `COc1cc(Nc2nccc(-c3coc4ccccc34)n2)cc(OC)c1OC`, the pIC50 was 5.42 in the test on A549, 5.38 with HepG2, 5.45 with U-937 and less than 5.00 in the test with Y79.

Turning to `COc1cc(Nc2ccnc(-c3coc4ccccc34)n2)cc(OC)c1OC`, the pIC50 is 5.85 in the test with A549, 5.62 in the test on HepG2, 6.05 with U-937 and less than 5.00 with Y79.

As for `COc1cc(Nc2nccc(-c3csc4ccccc34)n2)cc(OC)c1OC`, the pIC50 was less than 5.00 in the test on A549, 5.40 in the test on HepG2, 5.75 with U-937 and less than 5.00 in the test on Y79.

Consider `COc1cc(Nc2ccnc(-c3ccc4occc4c3)n2)cc(OC)c1OC`, for which the pIC50 in the test with A549, in the test on HepG2, in the test with U-937 and in the test on Y79 was less than 5.00 throughout.

Turning to `COc1cc(Nc2nccc(-c3ccc4c(c3)CCO4)n2)cc(OC)c1OC`, the pIC50 is 6.14 in the test on A549, 6.33 with HepG2, 6.59 with U-937 and 6.22 with Y79.

With `COc1cc(Nc2ccnc(-c3ccc4[nH]c5ccccc5c4c3)n2)cc(OC)c1OC`, the pIC50 is 5.41 in the test with A549, 5.42 in the test on HepG2, 5.88 in the test with U-937 and less than 5.00 with Y79.

Consider `COc1cc(Nc2ccnc(-c3cc4ccccc4o3)n2)cc(OC)c1OC`, for which the pIC50 in the test on A549, in the test on HepG2, with U-937 and in the test with Y79 was less than 5.00 each time.

As to `COc1cc(Nc2cc(-c3csc4ccccc34)ncn2)cc(OC)c1OC`, the pIC50 in the test on A549, with HepG2, in the test with U-937 and in the test with Y79 was less than 5.00 in each case.

Take `COc1cc(Nc2ccnc(-c3ccc4c(c3)OCCO4)n2)cc(OC)c1OC`: the pIC50 with A549, in the test on HepG2, in the test on U-937 and in the test on Y79 was less than 5.00 each time.

`COc1cc(Nc2cc(-c3cccc4c3OCO4)nc(N)n2)cc(OC)c1OC`: the pIC50 with A549, in the test on HepG2, in the test with U-937 and in the test on Y79 was less than 5.00 in each case.

Take `COc1cc(Nc2cc(-c3ccc4c(c3)OCCO4)nc(N)n2)cc(OC)c1OC`: the pIC50 with A549, in the test with HepG2, with U-937 and with Y79 was less than 5.00 throughout.

Regarding `COc1cc(Nc2cc(-c3ccc4c(c3)CCO4)nc(N)n2)cc(OC)c1OC`, the pIC50 with A549, in the test with HepG2, in the test on U-937 and with Y79 was less than 5.00 throughout.

With `COc1cc(Nc2cc(-c3ccc4c(c3)OCO4)ncn2)cc(OC)c1OC`, the pIC50 in the test with A549, with HepG2, in the test with U-937 and in the test with Y79 was less than 5.00 each time.

Regarding `COc1cc(Nc2nccc(-c3cc4ccccc4s3)n2)cc(OC)c1OC`, the pIC50 in the test with A549 was 6.34; with HepG2, 6.62; in the test with U-937 it was 6.92; in the test on Y79, less than 5.00.

In the case of `COc1cc(Nc2cc(-c3ccc4[nH]c5ccccc5c4c3)ncn2)cc(OC)c1OC`, the pIC50 is 5.52 with A549, less than 5.00 in the test on HepG2, 5.40 in the test with U-937 and less than 5.00 in the test with Y79.

With `COc1cc(Nc2cc(-c3ccc4ncccc4c3)ncn2)cc(OC)c1OC`, the pIC50 with A549, with HepG2, with U-937 and in the test on Y79 was less than 5.00 each time.

Turning to `COc1cc(Nc2nccc(-c3ccc4occc4c3)n2)cc(OC)c1OC`, the pIC50 in the test on A549 was 5.75; with HepG2, 6.10; with U-937, 7.40; with Y79 it was less than 5.00.

As for `COc1cc(Nc2nccc(-c3ccc4ncccc4c3)n2)cc(OC)c1OC`, the pIC50 in the test on A549 was 5.75; with HepG2, 6.08; in the test with U-937, 6.01; in the test on Y79, less than 5.00.

Consider `COc1cc(Nc2nccc(-c3ccc4sc5ccccc5c4c3)n2)cc(OC)c1OC`, for which the pIC50 in the test with A549 is less than 5.00; in the test on HepG2, less than 5.00; with U-937, 5.14; in the test on Y79, less than 5.00.

Consider `COc1cc(Nc2cc(-c3ccc4occc4c3)ncn2)cc(OC)c1OC`, for which the pIC50 with A549, with HepG2, with U-937 and with Y79 was less than 5.00 throughout.

Regarding `COc1cc(Nc2cc(-c3ccc4occc4c3)nc(N)n2)cc(OC)c1OC`, the pIC50 in the test on A549 is 5.35; in the test on HepG2, 5.36; in the test on U-937, 5.62; with Y79 it was less than 5.00.

As for `COc1cc(Nc2ccnc(-c3ccc4ncccc4c3)n2)cc(OC)c1OC`, the pIC50 in the test with A549, with HepG2, in the test on U-937 and in the test with Y79 was less than 5.00 in each case.

For `COc1cc(Nc2cc(-c3ccc4cc[nH]c4c3)nc(N)n2)cc(OC)c1OC`, the pIC50 is 5.72 with A549, 5.60 in the test with HepG2, 5.67 with U-937 and less than 5.00 in the test with Y79.

For `COc1cc(Nc2cc(-c3cc4ccccc4s3)ncn2)cc(OC)c1OC`, the pIC50 in the test on A549, in the test on HepG2, with U-937 and in the test with Y79 was less than 5.00 each time.

On to `COc1cc(Nc2cc(-c3ccc4c(c3)CCO4)ncn2)cc(OC)c1OC`, for which the pIC50 in the test with A549, with HepG2, with U-937 and with Y79 was less than 5.00 each time.

In the case of `COc1cc(Nc2cc(-c3cc4ccccc4s3)nc(N)n2)cc(OC)c1OC`, the pIC50 with A549, with HepG2, in the test with U-937 and in the test with Y79 was less than 5.00 throughout.

Take `COc1cc(Nc2ccnc(-c3ccc4c(c3)OCO4)n2)cc(OC)c1OC`: the pIC50 in the test on A549, in the test with HepG2, in the test on U-937 and in the test on Y79 was less than 5.00 each time.

For the compound `COc1cc(Nc2cc(-c3ccc4cc[nH]c4c3)ncn2)cc(OC)c1OC`, the pIC50 in the test with A549, with HepG2, with U-937 and in the test with Y79 was less than 5.00 each time.

Take `COc1cc(Nc2ccnc(-c3csc4ccccc34)n2)cc(OC)c1OC`: the negative-log IC50 (pIC50) in the test on A549 was 5.51; in the test on HepG2 it was 5.30; with U-937 it was 5.81; in the test on Y79, less than 5.00.
